According to the Deep4Chem optical property database:

Experiment: photoluminescence quantum yield (fraction); solvent given as SMILES

SMILES: CC1(C)c2ccccc2N(c2ccc(-c3cnc(C#N)nc3)cc2)c2ccccc21
- photoluminescence quantum yield (in Cc1ccccc1): 0.311
- photoluminescence quantum yield (in N#Cc1ccc2c(c1)c1ccccc1n2-c1cccc(-n2c3ccccc3c3ccccc32)c1): 1

SMILES: Cc1cn2cc(-c3ccc([N+](=O)[O-])cc3)[n-][n+]2c1
- photoluminescence quantum yield (in ClCCl): 0.022

SMILES: CCC1=C(C)C2C(c3ccc(-c4ccc(-c5nc6c7ccccc7c7ccccc7c6n5-c5ccc(C(C)(C)C)cc5)cc4)cc3)c3c(C)c(CC)c(C)n3[B-](F)(F)[N+]2=C1C (configuration not stated)
- photoluminescence quantum yield (in ClC(Cl)Cl): 0.672

SMILES: COc1ccc(-c2c3ccc([nH]3)c3nc(c(-c4ccc(C#N)cc4)c4ccc([nH]4)c4ccc([nH]4)c(-c4ccc(OC)cc4)c4ccc2o4)C=C3)cc1
- photoluminescence quantum yield (in C1CCOC1): 0.072
- photoluminescence quantum yield (in Cc1ccccc1): 0.141
- photoluminescence quantum yield (in c1ccccc1): 0.147

SMILES: COc1ccc(/C=C/c2ccccc2)cc1
- photoluminescence quantum yield (in C1CCCCC1): 0.022
- photoluminescence quantum yield (in CC#N): 0.007
- photoluminescence quantum yield (in CC(C)O): 0.011
- photoluminescence quantum yield (in CCCCOCCCC): 0.02
- photoluminescence quantum yield (in CCOC(C)=O): 0.016
- photoluminescence quantum yield (in CCOCC): 0.015

SMILES: CCOC(=O)COc1ccc(/C=C/C2=C3c4ccccc4C(c4[nH]c(C)cc4C)=[N+]3[B-](F)(F)n3c(/C=C/c4ccc(OCC(=O)OCC)cc4)cc(C)c32)cc1
- photoluminescence quantum yield (in C1CCOC1): 0.05
- photoluminescence quantum yield (in CC#N): 0.009
- photoluminescence quantum yield (in CCCCCC): 0.04
- photoluminescence quantum yield (in CO): 0.002
- photoluminescence quantum yield (in Cc1ccccc1): 0.009
- photoluminescence quantum yield (in ClCCl): 0.012

SMILES: CC1(C)C2=[N+](CCCCCC(=O)NCCCNC(=O)CCCCCN3/C(=C/C=C/C=C/C=C/2)C(C)(C)c2cc(S(=O)(=O)[O-])ccc23)c2ccc(S(=O)(=O)[O-])cc21
- photoluminescence quantum yield (in CO): 0.58
- photoluminescence quantum yield (in O): 0.36

SMILES: COc1ccc(-c2cc3c(s2)c(C(C)=O)cc(=O)n3C)cc1
- photoluminescence quantum yield (in CC#N): 0.84
- photoluminescence quantum yield (in ClCCl): 0.98

SMILES: CC1(C)C(/C=C/C=C/c2cc3ccc(O)cc3oc2=O)=[N+](CCCS(=O)(=O)[O-])c2ccccc21
- photoluminescence quantum yield (in CS(C)=O): 0.013
- photoluminescence quantum yield (in O): 0.013

SMILES: O=P1(c2ccccc2)C(c2ccc(C3=Cc4ccccc4P3(=O)c3ccccc3)cc2)=Cc2ccccc21 (configuration not stated)
- photoluminescence quantum yield (in C1CCOC1): 0.29

SMILES: CCOc1ccc2c(-c3nc(-c4ccccc4Cl)no3)cc(=O)oc2c1
- photoluminescence quantum yield (in CCO): 0.52
- photoluminescence quantum yield (in ClC(Cl)Cl): 0.26

SMILES: Cc1ccc(C2=C3C=CC(c4ccccc4)=[N+]3[B-](F)(F)n3c2ccc3-c2ccccc2)cc1
- photoluminescence quantum yield (in C1CCCCC1): 0.31
- photoluminescence quantum yield (in C1CCOC1): 0.22
- photoluminescence quantum yield (in C1COCCO1): 0.25
- photoluminescence quantum yield (in CCOC(C)=O): 0.2
- photoluminescence quantum yield (in CO): 0.21
- photoluminescence quantum yield (in Cc1ccccc1): 0.42
- photoluminescence quantum yield (in ClC(Cl)Cl): 0.31

SMILES: CN(C)c1ccc(C(=O)Nc2ccccc2)cc1
- photoluminescence quantum yield (in C1CCCCC1): 0.0011
- photoluminescence quantum yield (in C1CCOC1): 0.0061
- photoluminescence quantum yield (in CC#N): 0.0107
- photoluminescence quantum yield (in CCOCC): 0.0036

SMILES: O=Cc1ccc(-c2cccc(-c3nc4ccccc4s3)c2O)s1
- photoluminescence quantum yield (in CCO): 0.123
- photoluminescence quantum yield (in ClCCl): 0.164
- photoluminescence quantum yield (in O): 0.02

SMILES: COc1ccccc1C1=[N+]2C(=C(c3ccccc3)c3c4c(c(-c5ccccc5OC)n3[B-]2(F)F)C2CCC4CC2)C2=C1C1CCC2CC1
- photoluminescence quantum yield (in ClCCl): 0.77

SMILES: COC(=O)C(NC(=O)CCNc1cccc2ccccc12)c1ccccc1 (configuration not stated)
- photoluminescence quantum yield (in CCO): 0.55

SMILES: c1ccc2c(c1)-c1ccccc1C21c2ccccc2-c2oc3c(c21)C1(c2ccccc2-c2ccccc21)c1ccccc1-3
- photoluminescence quantum yield (in C1CCOC1): 0.39

SMILES: CC(=O)c1ccc(C#Cc2ccc3c(N(C)C)cc(-c4ccccc4)cc3c2)cc1
- photoluminescence quantum yield (in ClCCl): 0.01

SMILES: CC(C)(C)c1ccc2c(c1)c1cc(C(C)(C)C)ccc1n2-c1ccc(C#Cc2ccc(C=O)cc2)cc1
- photoluminescence quantum yield (in ClCCl): 0.1

SMILES: CCCCCCCCC1(CCCCCCCC)c2cc(C#CC#Cc3ccc(N(c4ccccc4)c4ccccc4)cc3)ccc2-c2ccc(C=O)cc21
- photoluminescence quantum yield (in C1CCOC1): 0.9
- photoluminescence quantum yield (in C1COCCO1): 0.76
- photoluminescence quantum yield (in CC#N): 0.2
- photoluminescence quantum yield (in CC(C)=O): 0.23
- photoluminescence quantum yield (in CCCCCC): 0.5
- photoluminescence quantum yield (in CCOC(C)=O): 0.76
- photoluminescence quantum yield (in CN(C)C=O): 0.16
- photoluminescence quantum yield (in CS(C)=O): 0.2
- photoluminescence quantum yield (in Cc1ccccc1): 0.94
- photoluminescence quantum yield (in ClC(Cl)Cl): 0.09
- photoluminescence quantum yield (in ClCCl): 0.7

SMILES: CSC1=C(C)C2=C(c3ccc(C)cc3)c3c(C)c(Cl)c(C)n3[B-](F)(F)[N+]2=C1C
- photoluminescence quantum yield (in C1CCOC1): 0.07

SMILES: CN(C)c1ccc(-c2nc(-c3ccccc3)c3ccccn23)cc1
- photoluminescence quantum yield (in ClCCl): 0.12

SMILES: COc1ccccc1-c1c(-c2ccccc2O)nc(-c2ccc(C(F)(F)F)cc2)n1-c1ccc(C)cc1
- photoluminescence quantum yield (in C1CCOC1): 0.01
- photoluminescence quantum yield (in CC(C)O): 0.01
- photoluminescence quantum yield (in CO): 0.01
- photoluminescence quantum yield (in CS(C)=O): 0.01
- photoluminescence quantum yield (in ClC(Cl)Cl): 0.01
- photoluminescence quantum yield (in ClCCl): 0.01

SMILES: Cc1ccc(-c2nc3sc4ccccc4c3s2)cc1
- photoluminescence quantum yield (in CS(C)=O): 0.89

SMILES: COc1ccc(-c2nc(-c3ccc(C)cc3)c3ccccn23)cc1
- photoluminescence quantum yield (in ClC(Cl)Cl): 0.13

SMILES: CCN(CC)c1ccc(-c2ccc(-c3nc4ccccc4c(=O)[nH]3)s2)cc1
- photoluminescence quantum yield (in CC#N): 0.28
- photoluminescence quantum yield (in Cc1ccccc1): 0.71

SMILES: CCN(CC)c1ccc2cc(/C=C/C3=CC(/C=C/c4cc5ccc(N(CC)CC)cc5oc4=O)=[O+][B-](F)(F)O3)c(=O)oc2c1
- photoluminescence quantum yield (in CC#N): 0.012
- photoluminescence quantum yield (in CC(C)=O): 0.032
- photoluminescence quantum yield (in CCOC(C)=O): 0.418
- photoluminescence quantum yield (in CN(C)C=O): 0.096
- photoluminescence quantum yield (in CS(C)=O): 0.008
- photoluminescence quantum yield (in Cc1ccccc1): 0.849
- photoluminescence quantum yield (in ClC(Cl)Cl): 0.504
- photoluminescence quantum yield (in ClCCl): 0.271

SMILES: COc1ccc(-c2cc3ccc4cc(-c5ccc(OC)cc5)cc5ccc(c2)c3c45)cc1
- photoluminescence quantum yield (in C1CCCCC1): 0.08
- photoluminescence quantum yield (in C1CCOC1): 0.17
- photoluminescence quantum yield (in CC#N): 0.13
- photoluminescence quantum yield (in CCCCCC): 0.04
- photoluminescence quantum yield (in CCO): 0.12
- photoluminescence quantum yield (in CN(C)C=O): 0.34
- photoluminescence quantum yield (in CO): 0.09
- photoluminescence quantum yield (in Cc1ccccc1): 0.09
- photoluminescence quantum yield (in ClC(Cl)Cl): 0.04
- photoluminescence quantum yield (in ClCCl): 0.09

SMILES: COc1nc(Nc2cc3ccc4cccc5ccc(c2)c3c45)nc(OC)n1
- photoluminescence quantum yield (in CC#N): 0.13
- photoluminescence quantum yield (in CCCCOCCCC): 0.15
- photoluminescence quantum yield (in CO): 0.13

SMILES: CCN(CC)c1ccc2cc(C#N)c(=N)oc2c1
- photoluminescence quantum yield (in ClCCl): 0.84

SMILES: COC(=O)C1=C(C(=O)OC)C2(c3ccccc3-c3ccc([N+](=O)[O-])cc32)C2(/C=C/c3ccccc3)c3cc(OC)c(OC)cc3CCN12 (configuration not stated)
- photoluminescence quantum yield (in ClCCl): 0.00069

SMILES: C(S/C=C/c1ccc(/C=C/SC=C2CCCC2)cc1)=C1CCCC1
- photoluminescence quantum yield (in ClCCl): 0.021

SMILES: COc1ccc2c(c1)[nH]c1c3[nH]c4cc(OC)ccc4c3c3nsnc3c21
- photoluminescence quantum yield (in CN(C)C=O): 0.47
- photoluminescence quantum yield (in Cc1ccccc1): 0.5
- photoluminescence quantum yield (in ClCCl): 0.5

SMILES: COc1ccc(N(c2ccc(OC)cc2)c2ccc(-c3ccc4c(c3)C(=O)c3ccccc3C4=O)cc2)cc1
- photoluminescence quantum yield (in C1CCOC1): 0
- photoluminescence quantum yield (in CCCCCC): 0.265
- photoluminescence quantum yield (in CCOC(C)=O): 0
- photoluminescence quantum yield (in Cc1ccccc1): 0.0045
- photoluminescence quantum yield (in ClC(Cl)(Cl)Cl): 0.0538
- photoluminescence quantum yield (in ClCCl): 0

SMILES: O=C(O)COc1cccc(OCC(=O)O)c1-c1c2ccc(=[N+]3CCCCC3)cc-2oc2cc(N3CCCCC3)ccc12
- photoluminescence quantum yield (in CCO): 0.49
- photoluminescence quantum yield (in O): 0.13

SMILES: CN1C(=CC2=C([O-])C(=CC3=[N+](C)c4ccc(Cl)cc4C3(C)C)C2=O)C(C)(C)c2cc(Cl)ccc21
- photoluminescence quantum yield (in CC(C)O): 0.1

SMILES: O=c1c2cc(-n3c4ccccc4c4ccccc43)ccc2sc2ccc(-n3c4ccccc4c4ccccc43)cc12
- photoluminescence quantum yield (in O=P(c1ccccc1)(c1ccccc1)c1ccccc1Oc1ccccc1P(=O)(c1ccccc1)c1ccccc1): 0.412

SMILES: [O-]c1ccccc1-c1[nH+]c2c3ccccc3c3ccccc3c2o1
- photoluminescence quantum yield (in Cc1ccccc1): 0.111

SMILES: Cc1c(C)n2c(COC(=O)c3ccc(F)cc3)c(C)c(=O)n2c1=O
- photoluminescence quantum yield (in CCO): 0.631

SMILES: CCCCCOc1cc2oc(=O)c3c4occc4c4ccc5cccc6c(c1)c2c3c4c56
- photoluminescence quantum yield (in C1CCOC1): 0.45

SMILES: CCC1=C(C)C2=C(C)c3cc(I)c(I)n3[B-](F)(F)[N+]2=C1C
- photoluminescence quantum yield (in C1CCCCC1): 0.2
- photoluminescence quantum yield (in CC(C)=O): 0.13
- photoluminescence quantum yield (in CCO): 0.16
- photoluminescence quantum yield (in CCOC(C)=O): 0.15
- photoluminescence quantum yield (in CO): 0.13
- photoluminescence quantum yield (in OCC(F)(F)F): 0.11

SMILES: CCCCCCc1ccc(-n2c3[n+](c4c5ccccc5c5ccccc5c42)[B-](C)(C)c2ccccc2-3)cc1
- photoluminescence quantum yield (in C1CCOC1): 0.45
- photoluminescence quantum yield (in CC#N): 0.28
- photoluminescence quantum yield (in Cc1ccccc1): 0.46
- photoluminescence quantum yield (in ClCCl): 0.38

SMILES: CN1/C(=C/C=C/C2=[N+](C)c3ccccc3C2(C)C)Sc2ccccc21
- photoluminescence quantum yield (in CS(C)=O): 0.07

SMILES: Oc1ccc2ccc(C3(O)C4CC5CC(C4)CC3C5)cc2c1 (configuration not stated)
- photoluminescence quantum yield (in CC#N): 0.3

SMILES: CCN(CC)c1ccc(-c2cc3c(s2)c(C(=O)OC)cc(=O)n3C)cc1
- photoluminescence quantum yield (in C1CCOC1): 0.97
- photoluminescence quantum yield (in CC#N): 0.08
- photoluminescence quantum yield (in CCO): 0.04
- photoluminescence quantum yield (in CN(C)C=O): 0.16
- photoluminescence quantum yield (in CS(C)=O): 0.1
- photoluminescence quantum yield (in Cc1ccccc1): 0.98
- photoluminescence quantum yield (in ClC(Cl)Cl): 0.99
- photoluminescence quantum yield (in ClCCl): 0.91

SMILES: COc1cc(-c2nc3sc4ccccc4c3s2)cc(OC)c1OC
- photoluminescence quantum yield (in CS(C)=O): 0.6

SMILES: O=S(=O)(c1ccc(-c2ccc(-c3nc4c5ccccc5c5ccccc5c4n3-c3ccccc3)cc2)cc1)c1ccc(-c2ccc(-c3nc4c5ccccc5c5ccccc5c4n3-c3ccccc3)cc2)cc1
- photoluminescence quantum yield (in C1CCOC1): 0.847
- photoluminescence quantum yield (in CC#N): 0.579
- photoluminescence quantum yield (in CC(C)=O): 0.779
- photoluminescence quantum yield (in CC(C)OC(C)C): 0.81
- photoluminescence quantum yield (in CCCCCC): 0.676
- photoluminescence quantum yield (in CCCCOCCCC): 0.85
- photoluminescence quantum yield (in CCN(CC)CC): 0.102
- photoluminescence quantum yield (in CCOC(C)=O): 0.89
- photoluminescence quantum yield (in CCOCC): 0.992
- photoluminescence quantum yield (in CN(C)C=O): 0.775
- photoluminescence quantum yield (in ClC(Cl)Cl): 1
- photoluminescence quantum yield (in ClCCl): 0.824
- photoluminescence quantum yield (in c1ccc2c(c1)c1ccccc1n2-c1ccc(-c2ccc(-n3c4ccccc4c4ccccc43)cc2)cc1): 0.72

SMILES: CCCCN1c2ccccc2Sc2cc(/C=C\c3cc(=O)oc4cc(C)ccc34)ccc21
- photoluminescence quantum yield (in ClC(Cl)Cl): 0.21

SMILES: c1ccc(-c2nnc(-c3ccc(-n4c5ccccc5c5ccccc54)cc3)o2)cc1
- photoluminescence quantum yield (in Cc1ccccc1): 0.57

SMILES: CCC1=C(CC)c2cccc3c2c(cc2nc4ccccc4nc23)O1
- photoluminescence quantum yield (in ClCCl): 0.47
